Measured values as given in ChEMBL document CHEMBL1138606, “The discovery of tropane derivatives as nociceptin receptor ligands for the management of cough and anxiety” (Bioorg Med Chem Lett, 2009).

Experiments:
Mu-type opioid receptor = Mu-type opioid receptor (Homo sapiens, UniProt P35372); assay: Displacement of [3H]diprenorphine from human mu opioid receptor expressed in CHO cells; format: cell-based
Nociceptin receptor = Nociceptin receptor (Homo sapiens, UniProt P41146); assay: Displacement of [125I][Tyr14]nociceptin from human cloned NOP receptor expressed in CHO cells; format: cell-based
[1] = target: T1, Nuclear receptor subfamily 1 group I member 2 (Homo sapiens, UniProt O75469); assay: Activity at human PXR assessed as induction of CYP3A4 activity in human hepatocytes at 1 uM relative to rifampicin; format: cell-based, Hepatocyte
T1 sequence (O75469 whole entry): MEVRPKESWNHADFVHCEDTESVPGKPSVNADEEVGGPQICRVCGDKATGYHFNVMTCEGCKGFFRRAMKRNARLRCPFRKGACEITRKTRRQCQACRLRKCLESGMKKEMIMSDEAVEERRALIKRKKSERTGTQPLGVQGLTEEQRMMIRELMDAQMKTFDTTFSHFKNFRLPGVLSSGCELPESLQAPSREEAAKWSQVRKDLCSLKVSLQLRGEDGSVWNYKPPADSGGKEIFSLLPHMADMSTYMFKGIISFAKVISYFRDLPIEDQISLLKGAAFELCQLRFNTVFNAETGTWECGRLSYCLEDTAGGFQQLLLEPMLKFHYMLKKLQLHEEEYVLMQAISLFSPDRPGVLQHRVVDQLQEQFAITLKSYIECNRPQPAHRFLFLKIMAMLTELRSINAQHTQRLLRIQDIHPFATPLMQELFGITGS

Mu-type opioid receptor, sequence (P35372 whole entry): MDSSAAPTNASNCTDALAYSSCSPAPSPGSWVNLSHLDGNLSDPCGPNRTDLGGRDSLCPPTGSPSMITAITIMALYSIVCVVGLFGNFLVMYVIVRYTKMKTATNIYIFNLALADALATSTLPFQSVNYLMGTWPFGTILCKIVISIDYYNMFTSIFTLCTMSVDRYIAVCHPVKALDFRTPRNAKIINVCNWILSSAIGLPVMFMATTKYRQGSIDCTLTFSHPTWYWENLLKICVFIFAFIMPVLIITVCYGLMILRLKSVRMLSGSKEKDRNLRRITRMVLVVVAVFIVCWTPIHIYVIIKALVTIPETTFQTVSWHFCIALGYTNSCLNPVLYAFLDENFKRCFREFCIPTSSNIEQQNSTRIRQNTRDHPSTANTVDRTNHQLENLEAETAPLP
Nociceptin receptor, sequence (P41146 whole entry): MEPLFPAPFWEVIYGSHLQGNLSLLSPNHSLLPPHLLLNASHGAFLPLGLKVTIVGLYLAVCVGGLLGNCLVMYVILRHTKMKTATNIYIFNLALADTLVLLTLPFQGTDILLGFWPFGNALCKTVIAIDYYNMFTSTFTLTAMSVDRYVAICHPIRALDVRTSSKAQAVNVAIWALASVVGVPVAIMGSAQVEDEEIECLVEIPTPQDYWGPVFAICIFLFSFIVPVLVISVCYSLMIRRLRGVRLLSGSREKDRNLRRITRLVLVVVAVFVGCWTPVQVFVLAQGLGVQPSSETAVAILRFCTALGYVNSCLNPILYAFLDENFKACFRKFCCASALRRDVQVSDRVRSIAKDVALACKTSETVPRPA

**Q.** For `OC1(c2cncs2)CC2CCC(C1)N2C(c1ccccc1Cl)c1ccccc1Cl` (stereo in doubt; 11b), which Ki (Mu-type opioid receptor) is on record?
**A.** The Ki was 1490 nM.

**Q.** What about the Ki (Nociceptin receptor) of the same compound?
**A.** Its Ki is 19 nM.

**Q.** Which results are given for `COCCNC(=O)C1(c2ccccc2)CC2CCC(C1)N2C(c1ccccc1Cl)c1ccccc1Cl` (stereo unspecified)?
**A.** Ratio [1]: 2.35; Ki (Mu-type opioid receptor): 60 nM; Ki (Nociceptin receptor): 8.2 nM

**Q.** For `Cc1ccnc(C2(O)CC3CCC(C2)N3C(c2ccccc2Cl)c2ccc(C)cc2Cl)c1` (stereo unspecified), which Ki (Mu-type opioid receptor) is on record?
**A.** Its Ki is 708 nM.

**Q.** And the Ki (Nociceptin receptor)?
**A.** Its Ki is 7.3 nM.

**Q.** How did the Ki (Mu-type opioid receptor) turn out when `O=C(O)C1(c2ccccc2)CC2CCC(C1)N2C(c1ccccc1Cl)c1ccccc1Cl` (stereo unspecified) was run?
**A.** The Ki was 123 nM.

**Q.** And the Ki (Nociceptin receptor)?
**A.** The Ki was 3 nM.

**Q.** With `NC(=O)c1ccc(C2(C(N)=O)CC3CCC(C2)N3C(c2ccccc2Cl)c2ccccc2Cl)cc1` (stereo unspecified) as the compound, how does the Ratio [1] read?
**A.** Its Ratio is 0.05.

**Q.** And the Ki (Nociceptin receptor)?
**A.** The Ki was 678 nM.

**Q.** Which Ki (Nociceptin receptor) does the source give for `C[C@H]1CN(C(c2ccccc2)c2ccccc2)CC[C@@]1(O)c1ccccc1` here?
**A.** Its Ki is 1570 nM.

**Q.** How did the Ratio [1] turn out when `NC(=O)C1(c2ccc(OC(F)(F)F)cc2)CC2CCC(C1)N2C(c1ccccc1Cl)c1ccccc1Cl` (stereo unspecified) was run?
**A.** The Ratio was 0.1.

**Q.** And the Ki (Nociceptin receptor)?
**A.** The Ki was 285 nM.

**Q.** What does the source list for `Cc1ccc(C(c2ccccc2Cl)N2C3CCC2CC(O)(CCCO)C3)c(Cl)c1` (stereo unspecified)?
**A.** Ki (Mu-type opioid receptor): 306 nM; Ki (Nociceptin receptor): 7.4 nM

**Q.** For `CCNC(=O)C1(c2ccccc2)CC2CCC(C1)N2C(c1ccccc1Cl)c1ccccc1Cl` (stereo unspecified), which Ratio [1] is on record?
**A.** Its Ratio is 1.49.

**Q.** And the Ki (Mu-type opioid receptor)?
**A.** The Ki was 215 nM.

**Q.** What about the Ki (Nociceptin receptor) of the same compound?
**A.** The Ki was 7 nM.

**Q.** How did the Ki (Nociceptin receptor) turn out when `N#CC1(c2ccccc2)CC2CCC(C1)N2C(c1ccccc1Cl)c1ccccc1Cl` (stereo unspecified) was run?
**A.** The Ki was 100 nM.

**Q.** What does the source list for `CC(C)NC(=O)C1(c2ccccc2)CC2CCC(C1)N2C(c1ccccc1Cl)c1ccccc1Cl` (stereo unspecified)?
**A.** Ratio [1]: 2.21; Ki (Mu-type opioid receptor): 333 nM; Ki (Nociceptin receptor): 10 nM

**Q.** `Cc1ccnc(C2(O)C3CCC2CN(C(c2ccccc2Cl)c2ccccc2Cl)C3)c1` (stereo unspecified) was tested. Which Ki (Mu-type opioid receptor) did it give?
**A.** The Ki was 3590 nM.

**Q.** What about the Ki (Nociceptin receptor) of the same compound?
**A.** The Ki was 385 nM.

**Q.** Which Ki (Mu-type opioid receptor) does the source give for `OC1(c2cccnc2)C2CCC1CN(C(c1ccccc1Cl)c1ccccc1Cl)C2` (stereo unspecified) here?
**A.** The Ki was 7260 nM.

**Q.** What about the Ki (Nociceptin receptor) of the same compound?
**A.** Its Ki is 908 nM.

**Q.** Which results are given for `CNC(=O)NC1(c2ccccc2)CC2CCC(C1)N2C(c1ccccc1Cl)c1ccccc1Cl` (stereo unspecified)?
**A.** Ki (Mu-type opioid receptor): 27 nM; Ki (Nociceptin receptor): 2 nM

**Q.** `OC1CC2CCC(C1)N2C(c1ccccc1Cl)c1ccccc1Cl` (stereo in doubt; 12a) was tested. Which Ki (Nociceptin receptor) did it give?
**A.** Its Ki is 1090 nM.

**Q.** For `OC1(c2cncs2)CC2CCC(C1)N2C(c1ccccc1Cl)c1ccccc1Cl` (stereo in doubt; 12b), which Ki (Nociceptin receptor) is on record?
**A.** Its Ki is 3000 nM.

**Q.** `OC1(c2cccnn2)CC2CCC(C1)N2C(c1ccccc1Cl)c1ccccc1Cl` (stereo in doubt; 11c) was tested. Which Ki (Mu-type opioid receptor) did it give?
**A.** The Ki was 470 nM.

**Q.** What about the Ki (Nociceptin receptor) of the same compound?
**A.** Its Ki is 10 nM.

**Q.** For `OC1(c2cccnc2)CC2CCC(C1)N2C(c1ccccc1Cl)c1ccccc1Cl` (stereo unspecified), which Ki (Mu-type opioid receptor) is on record?
**A.** Its Ki is 42 nM.

**Q.** And the Ki (Nociceptin receptor)?
**A.** Its Ki is 3 nM.

**Q.** What does the source list for `NC(=O)C1(c2ccc(Br)cc2)CC2CCC(C1)N2C(c1ccccc1Cl)c1ccccc1Cl` (stereo unspecified)?
**A.** Ratio [1]: 0.05; Ki (Nociceptin receptor): 40 nM

**Q.** Which Ki (Nociceptin receptor) does the source give for `FCC1(c2ccccc2)CC2CCC(C1)N2C(c1ccccc1Cl)c1ccccc1Cl` (stereo unspecified) here?
**A.** The Ki was 3150 nM.

**Q.** Which Ratio [1] does the source give for `CNC(=O)C1(c2ccccc2)CC2CCC(C1)N2C(c1ccccc1Cl)c1ccccc1Cl` (stereo unspecified) here?
**A.** Its Ratio is 1.29.

**Q.** And the Ki (Mu-type opioid receptor)?
**A.** The Ki was 50 nM.

**Q.** What about the Ki (Nociceptin receptor) of the same compound?
**A.** Its Ki is 4.9 nM.

**Q.** Which Ki (Nociceptin receptor) does the source give for `OC1CC2CCC(C1)N2C(c1ccccc1Cl)c1ccccc1Cl` (stereo in doubt; 11a) here?
**A.** Its Ki is 198 nM.

**Q.** Which results are given for `CC(O)CNC(=O)C1(c2ccccc2)CC2CCC(C1)N2C(c1ccccc1Cl)c1ccccc1Cl` (stereo unspecified)?
**A.** Ratio [1]: 2.38; Ki (Mu-type opioid receptor): 57 nM; Ki (Nociceptin receptor): 11 nM

**Q.** How did the Ki (Mu-type opioid receptor) turn out when `Clc1ccccc1C(c1ccccc1Cl)N1C2CCC1CC(c1ccccc1)(c1nc[nH]n1)C2` (stereo unspecified) was run?
**A.** The Ki was 100 nM.

**Q.** And the Ki (Nociceptin receptor)?
**A.** Its Ki is 5.3 nM.

**Q.** How did the Ratio [1] turn out when `COc1ccc(C2(C(N)=O)CC3CCC(C2)N3C(c2ccccc2Cl)c2ccccc2Cl)cc1` (stereo unspecified) was run?
**A.** Its Ratio is 0.06.

**Q.** What about the Ki (Mu-type opioid receptor) of the same compound?
**A.** Its Ki is 59 nM.

**Q.** And the Ki (Nociceptin receptor)?
**A.** Its Ki is 22 nM.

**Q.** For `NC(=O)C1(c2ccc(Cl)cc2)CC2CCC(C1)N2C(c1ccccc1Cl)c1ccccc1Cl` (stereo unspecified), which Ratio [1] is on record?
**A.** The Ratio was 0.05.

**Q.** What about the Ki (Mu-type opioid receptor) of the same compound?
**A.** The Ki was 55 nM.

**Q.** What about the Ki (Nociceptin receptor) of the same compound?
**A.** Its Ki is 31 nM.

**Q.** For `Cc1ccc(C(c2ccccc2Cl)N2C3CCC2CC(O)(C2CCCN2Cc2ccccc2)C3)c(Cl)c1` (stereo unspecified), which Ki (Mu-type opioid receptor) is on record?
**A.** Its Ki is 1550 nM.

**Q.** What about the Ki (Nociceptin receptor) of the same compound?
**A.** Its Ki is 14 nM.

**Q.** Which Ki (Nociceptin receptor) does the source give for `OC1(c2cccnn2)CC2CCC(C1)N2C(c1ccccc1Cl)c1ccccc1Cl` (stereo in doubt; 12c) here?
**A.** Its Ki is 3760 nM.
